Data as given in patent publication US10363253B2, “Combination products for the treatment of RSV” (priority 2016, dated 2019).
“And” between values parts separate entries of the source, which are not always exact repeats. Identical values can stand only once. Like-named read-outs stand apart in the source and are kept apart here.

Test system: rgRSV224, an engineered RSV strain that encodes for eGFP
Assay type: cell-based
Experimental: To evaluate their combined antiviral effect against RSV, in vitro combination studies were performed with JNJ-53718678 (“compound A”) and various compounds with different mechanisms-of-action (“compound B”). In short, 9 concentrations of Compound A were combined with 6 or 7 concentrations of a certain compound B. HeLa cells were infected with rgRSV224, an engineered RSV strain that encodes for eGFP (Hallak L K, Spillmann D, Collins P L, Peeples M E. Glycosaminoglycan sulfation requirements for respiratory syncytial virus infection; Journal of Virology (2000), 74(22), 10508-13), in the presence of various concentrations of compound A and compound B individually or in combination.
Compound stock solutions were 5 mM in 100% DMSO, with following exceptions: ribavirin, 20 mM; A 60444, 10 mM; CR9501, 141 μM in PBS; palivizumab, 156 μM in PBS; MDT 637, 100 μM in methanol. First, the compounds were serially diluted in 3-fold dilution series in DMSO; CR9501 and palivizumab were serially diluted in cell culture medium, and MDT 637 in methanol. The concentration series were diluted 100-fold in cell culture medium to achieve a combination matrix. 10 μL of these compound solutions were transferred to black 384-well clear-bottom tissue-culture treated plates. Next, 10 μL of a […] HeLa cell suspension was added to achieve 3000 cells per well. Finally, 10 μL of diluted virus stock was added to achieve an MOI of 1. The final DMSO concentration of all wells was 0.5% DMSO, except for the MDT 637 experiment where it was 0.25% DMSO+0.25% methanol. Each combination of compound concentrations was tested in 4 replicates on 3 separate plates, resulting in a total of 12 replicates. The plates were incubated for 3 days at 37° C. in a humidified atmosphere at 5% CO2. The GFP signal was measured with PerkinElmer EnVision apparatus using a 405 nm filter.
The method of Harbron (Statistics in Medicine, 2010, DOI:10.1002/sim3916) was used to assess synergy. Using the Loewe definition, two compounds are characterized as being additive, synergistic or antagonistic by:
where d1 and d2 represent the doses of the two compounds that in combination produce an effect y, and Dy,1 and Dy,2 represent the doses of the two compounds that produce the same effect, y, when administered as a monotherapy. A 3PL model (3-parameter log-logistic model) was used for the monotherapy dose-response data, where the baseline response was fixed at one.
Following Harbron's approach, the following models were fitted to the data: • “Additive”: assuming no interaction between the two compounds • “Uniform”: assuming a constant interaction index τ across all dose combinations • “Linear A”: assuming the interaction index linearly depends on the log 10 dose of compound A: z=τ1+τ2 log 10(dA) • “Separate A”: assuming the interaction index τ takes a separate value for each dose of compound A The latter two models were also considered for compound B: • “Linear B”: assuming the interaction index linearly τ depends on the log 10 dose of compound B: τ=τ1+τ2 log 10(dB) • “Separate B”: assuming the interaction index τ takes a separate value for each dose of compound B

O=C(Nc1ccccc1F)N[C@H]1N=C(c2ccccc2)c2ccccc2NC1=O [Compound A-60444, (S)-1-(2-fluorophenyl)-3-(2-oxo-5-phenyl-2,3-dihydro-1H-benzo[e][1,4]diazepin-3-yl) urea, reference compound]
normalized GFP signal (A = 0, B (A-60444) = 34): 1.00
normalized GFP signal (A = 0, B (A-60444) = 103): 1.00
normalized GFP signal (A = 0, B (A-60444) = 309): 0.96
normalized GFP signal (A = 0, B (A-60444) = 926): 0.93
normalized GFP signal (A = 0, B (A-60444) = 2778): 0.93
normalized GFP signal (A = 0, B (A-60444) = 8333): 0.75
normalized GFP signal (A = 0, B (A-60444) = 25000): 0.39

Cc1nnnn1/N=C/c1ccc(O)c(C(c2ccc(O)cc2)c2cc(/C=N/n3nnnc3C)ccc2O)c1 [MDT-637, reference compound]
normalized GFP signal: 0.99 and 0.95
normalized GFP signal (A = 0, B (MDT-637) = 0.038): 1.01
normalized GFP signal (A = 0, B (MDT-637) = 1): 0.93
normalized GFP signal (A = 0, B (MDT-637) = 3.1): 0.75
normalized GFP signal (A = 0, B (MDT-637) = 9.3): 0.14
normalized GFP signal (A = 0, B (MDT-637) = 28): 0.01

Cc1cnc(N2CC3(CCOCC3)C2)c(C(=O)Nc2ccc(C(=O)N3CCc4cc(C(=O)Nc5c(C)cccc5F)sc4-c4ccccc43)cc2)c1 [pulmocide compound, N-(2-fluoro-6-methylphenyl)-6-(4-(5-methyl-2-(7-oxa-2-azaspiro[3.5]nonan-2-yl)nicotinamido)benzoyl)-5,6-dihydro-4H-benzo[b]thieno[2,3-d]azepine-2-carboxamide, reference compound]
normalized GFP signal: 1.04
normalized GFP signal (A = 0, B (pulmocide compound) = 0.058): 0.99
normalized GFP signal (A = 0, B (pulmocide compound) = 0.17): 0.99
normalized GFP signal (A = 0, B (pulmocide compound) = 1.6): 0.91
normalized GFP signal (A = 0, B (pulmocide compound) = 4.7): 0.20
normalized GFP signal (A = 0, B (pulmocide compound) = 14): 0.02
normalized GFP signal (A = 0, B (pulmocide compound) = 42): 0.02

NC(=O)c1ncn([C@@H]2O[C@H](CO)[C@@H](O)[C@H]2O)n1 [ribavirin, 1-β-D-ribofuranosyl-1H-1,2,4-triazole-3-carboxamide, reference compound]
normalized GFP signal (A = 0, B (ribavirin) = 69): 1.00
normalized GFP signal (A = 0, B (ribavirin) = 206): 0.98
normalized GFP signal (A = 0, B (ribavirin) = 617): 0.98
normalized GFP signal (A = 0, B (ribavirin) = 1852): 0.97
normalized GFP signal (A = 0, B (ribavirin) = 5556): 0.94
normalized GFP signal (A = 0, B (ribavirin) = 16667): 0.83
normalized GFP signal (A = 0, B (ribavirin) = 50000): 0.13

palivizumab: monoclonal antibody CAS 188039-54-5
normalized GFP signal (A = 0, B (palivizumab) = 0.0061): 1.05
normalized GFP signal (A = 0, B (palivizumab) = 0.018): 1.01
normalized GFP signal (A = 0, B (palivizumab) = 0.055): 0.97
normalized GFP signal (A = 0, B (palivizumab) = 0.165): 1.01
normalized GFP signal (A = 0, B (palivizumab) = 0.494): 0.89
normalized GFP signal (A = 0, B (palivizumab) = 1.482): 0.33
normalized GFP signal (A = 0, B (palivizumab) = 4.447): 0.06
